Measured values from US4187216A, “Dipeptide derivatives” (Hoffmann-La Roche Inc., priority 1976, dated 1980).
pIC50, pKi: −log10 of the molar value. Counter-ions that a name gives are not always drawn. Residues, ends and D or L forms follow the SMILES beside them. *: point of attachment. pNA = O=[N+]([O-])c1ccc(N*)cc1; Tos = Cc1ccc(S(=O)(=O)*)cc1; Hexanoyl = CCCCCC(=O)*; Propionyl = CCC(=O)*; Tfa = O=C(C(F)(F)F)*; NHPh = c1ccc(N*)cc1

biological target: T1, human granulocyte elastase (Homo sapiens, UniProt P08246); assay: in vitro elastase inhibition, test method of Visser and Blout, human granulocyte elastase as enzyme; assay type: biochemical; conditions: read-out: I50, concentration which gives 50% inhibition of the human granulocyte elastase
T1 sequence (P08246 30-267): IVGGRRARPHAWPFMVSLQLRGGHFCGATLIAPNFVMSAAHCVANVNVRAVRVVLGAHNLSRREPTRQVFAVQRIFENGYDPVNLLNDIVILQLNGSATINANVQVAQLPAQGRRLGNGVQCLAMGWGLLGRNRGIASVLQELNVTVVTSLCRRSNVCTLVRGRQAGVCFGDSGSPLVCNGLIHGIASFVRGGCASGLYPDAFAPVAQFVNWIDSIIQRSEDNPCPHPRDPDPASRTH
Source text: Acta 268 (1972) 257, using human granulocyte elastase as the enzyme. The results obtained with representative dipeptide derivatives of formula I in this test are given in Table I hereinafter, the I50 being the concentration in millimoles per liter which gives 50% inhibition of the human granulocyte elastase: […]

| pIC50 | SMILES |
| --- | --- |
| 3.10 | CCCCCC(=O)N[C@@H](C)C(=O)N1CCC[C@H]1C(=O)Nc1ccccc1 [(N-Hexanoyl-L-alanyl-L-proline) anilide, N-Hexanoyl-L-alanyl-L-proline anilide] (Hexanoyl-Ala-Pro-NHPh) |
| 4.22 | C[C@H](NC(=O)CC12CC3CC(CC(C3)C1)C2)C(=O)N1CCC[C@H]1C(=O)Nc1ccccc1 [N-(1-Adamantylacetyl)-L-alanyl-L-proline anilide] |
| 3.22 | C[C@H](NC(=O)C12CC3CC(CC(C3)C1)C2)C(=O)N1CCC[C@H]1C(=O)Nc1ccccc1 [N-(1-Adamantylcarbonyl)-L-alanyl-L-proline anilide] |
| 5.15 | C[C@H](NS(=O)(=O)C12CC3CC(CC(C3)C1)C2)C(=O)N1CCC[C@H]1C(=O)Nc1ccccc1 [N-(1-Adamantylsulphonyl)-L-alanyl-L-proline anilide] |
| 4.22 | Cc1ccc(S(=O)(=O)N[C@@H](C)C(=O)N2CCC[C@H]2C(=O)Nc2ccccc2)cc1 [N-(p-Toluenesulphonyl)-L-alanyl-L-proline anilide] (Tos-Ala-Pro-NHPh) |
| 3.00 | C[C@H](NC(=O)OCc1ccccc1)C(=O)N1CCC[C@H]1C(=O)NC1CCCCC1 [N-Benzyloxycarbonyl-L-alanyl-L-proline cyclohexylamide] |
| ~2.30 | CCCCCNC(=O)[C@@H]1CCCN1C(=O)[C@H](C)NC(=O)OCc1ccccc1 [N-Benzyloxycarbonyl-L-alanyl-L-proline n-pentylamide] |

biological target: porcine pancreatic elastase (Sus scrofa, UniProt P00772); assay: in vitro elastase inhibition, test method of Visser and Blout, porcine pancreatic elastase as enzyme; assay type: biochemical; conditions: read-out: Ki, inhibitor constant
Sequence (P00772 27-266): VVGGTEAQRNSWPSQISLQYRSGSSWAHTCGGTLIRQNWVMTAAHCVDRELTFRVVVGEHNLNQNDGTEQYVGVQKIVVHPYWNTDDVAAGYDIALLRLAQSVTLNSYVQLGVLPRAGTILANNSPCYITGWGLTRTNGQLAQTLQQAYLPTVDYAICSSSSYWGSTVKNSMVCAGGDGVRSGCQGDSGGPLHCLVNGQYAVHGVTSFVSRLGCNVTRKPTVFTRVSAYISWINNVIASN

| pKi | SMILES |
| --- | --- |
| 4.40 | CCC(=O)N[C@@H](C)C(=O)N[C@@H](C)C(=O)Nc1ccccc1 [N-Propionyl-L-alanyl-L-alanine anilide] (Propionyl-Ala-Ala-NHPh) |
| 4.59 | CCC(=O)N[C@@H](C)C(=O)N1CCC[C@H]1C(=O)Nc1ccc([N+](=O)[O-])cc1 [N-Propionyl-L-alanyl-L-proline 4-nitroanilide] (Propionyl-Ala-Pro-pNA) |
| 4.40 | CCC(=O)N[C@@H](C)C(=O)N1CCC[C@H]1C(=O)Nc1ccccc1 [N-Propionyl-L-alanyl-L-proline anilide] (Propionyl-Ala-Pro-NHPh) |
| 4.70 | CCC(=O)N[C@@H](C)C(=O)N1CCC[C@H]1C(=O)NC1CCCCC1 [N-Propionyl-L-alanyl-L-proline cyclohexylamide] |
| 5.85 | C[C@H](NC(=O)C(F)(F)F)C(=O)N1CCC[C@H]1C(=O)Nc1ccccc1 [N-Trifluoroacetyl-L-alanyl-L-proline anilide] (Tfa-Ala-Pro-NHPh) |
